In ChEMBL document CHEMBL1201862, “PubChem BioAssay data set” (2004):
Calls of active or inactive are those of the source.

Assays:
[1] = LGR2 antagonists, dose response, cell-based, HEK293, CRE-luciferase reporter, cherry pick, set 2 (AID 743343); format: functional;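 further: transfected cells were stimulated with diluted bursicon conditioned medium after compound addition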
[2] = A549 cell cytotoxicity, dose response, cytotoxicity control, plate reader, cherry-pick, antagonist series (AID 743412); format: functional, cell-based
[3] = MC4R antagonists, dose response, counter-screen for LGR2 antagonist project, cell-based, plate reader, cherry pick (AID 743444); format: functional;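 further: transfected HEK 293 cells stimulated with alpha-MSH peptide; potency of inhibitors of the alpha-MSH evoked signal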
fMet-Leu-Phe receptor = target: T1, fMet-Leu-Phe receptor (Homo sapiens, UniProt P21462); test: FPR ligands, dose response (AID 519); format: functional
T1 sequence (P21462 whole entry): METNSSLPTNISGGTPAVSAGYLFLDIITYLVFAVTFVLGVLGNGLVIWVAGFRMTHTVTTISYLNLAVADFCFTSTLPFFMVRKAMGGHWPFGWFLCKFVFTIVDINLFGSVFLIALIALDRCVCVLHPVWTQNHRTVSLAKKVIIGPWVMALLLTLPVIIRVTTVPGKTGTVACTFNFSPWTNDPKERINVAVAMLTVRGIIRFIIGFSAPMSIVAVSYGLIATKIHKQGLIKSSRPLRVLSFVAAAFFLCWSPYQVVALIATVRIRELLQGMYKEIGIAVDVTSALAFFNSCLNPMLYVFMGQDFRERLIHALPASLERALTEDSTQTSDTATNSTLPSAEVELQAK

[4] = human group III sPLA2 inhibitors, dose response, biochemical, QFRET, IC50 (AID 743457);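 further: green fluorescence rise as the enzyme cleaves BODIPY PC-A2 in liposomes; potency for inhibition of the enzyme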
[5] = HeLa cell cytotoxicity, dose response, cytotoxicity control for MgcRacGAP inhibitor project (AID 624300); format: functional
[6] = cytotoxicity in HEK-293T cells, dose response, cytotoxicity control for TCR NF-kB inhibitor project, luminescence, T-cell screen hits (AID 489026); format: functional, cell-based;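 further: cells exposed to compound about 14 hours before the viability readout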
Nonstructural protein 1 = Nonstructural protein 1 (Influenza A virus, UniProt Q194T2); format: functional, Influenza A virus (A/California/07/2009(H1N1))
[7] = target: T2, Apoptotic protease-activating factor 1 (Homo sapiens, UniProt O14727); format: functional
T2 sequence (O14727 whole entry): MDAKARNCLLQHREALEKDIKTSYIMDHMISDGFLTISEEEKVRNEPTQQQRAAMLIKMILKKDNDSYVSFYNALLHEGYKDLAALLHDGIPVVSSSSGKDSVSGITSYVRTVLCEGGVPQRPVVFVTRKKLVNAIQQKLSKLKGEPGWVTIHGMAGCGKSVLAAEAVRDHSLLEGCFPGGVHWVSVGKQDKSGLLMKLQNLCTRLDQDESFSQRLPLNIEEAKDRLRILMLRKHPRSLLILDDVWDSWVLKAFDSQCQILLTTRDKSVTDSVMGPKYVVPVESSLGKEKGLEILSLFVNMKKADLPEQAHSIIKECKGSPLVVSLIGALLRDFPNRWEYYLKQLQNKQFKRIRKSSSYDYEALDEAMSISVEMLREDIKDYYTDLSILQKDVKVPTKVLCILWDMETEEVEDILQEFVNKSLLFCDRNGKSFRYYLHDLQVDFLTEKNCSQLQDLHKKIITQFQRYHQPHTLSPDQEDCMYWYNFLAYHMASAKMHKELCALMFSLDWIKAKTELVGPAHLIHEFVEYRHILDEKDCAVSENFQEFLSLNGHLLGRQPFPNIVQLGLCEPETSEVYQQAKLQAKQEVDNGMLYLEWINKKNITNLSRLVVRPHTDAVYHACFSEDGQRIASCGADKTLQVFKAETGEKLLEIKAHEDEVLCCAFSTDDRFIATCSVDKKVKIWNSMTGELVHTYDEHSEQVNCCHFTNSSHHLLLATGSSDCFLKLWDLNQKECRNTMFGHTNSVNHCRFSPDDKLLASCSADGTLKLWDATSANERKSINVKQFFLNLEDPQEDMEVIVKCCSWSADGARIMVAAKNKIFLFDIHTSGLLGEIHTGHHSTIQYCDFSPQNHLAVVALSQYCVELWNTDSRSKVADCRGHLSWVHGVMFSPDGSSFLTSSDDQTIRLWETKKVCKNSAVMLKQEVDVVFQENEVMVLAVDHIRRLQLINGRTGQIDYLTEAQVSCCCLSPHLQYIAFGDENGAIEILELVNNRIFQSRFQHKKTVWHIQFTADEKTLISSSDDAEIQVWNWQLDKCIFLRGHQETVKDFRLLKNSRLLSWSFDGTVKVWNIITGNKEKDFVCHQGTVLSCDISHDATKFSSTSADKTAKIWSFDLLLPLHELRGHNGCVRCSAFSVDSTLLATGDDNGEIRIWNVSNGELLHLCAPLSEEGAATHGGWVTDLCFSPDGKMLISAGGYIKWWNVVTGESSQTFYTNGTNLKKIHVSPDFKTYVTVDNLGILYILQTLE

INS1 = test: beta cell apoptosis inhibitors, cytokine rescue, dose response, luminescence, retest (AID 449756); format: functional, cell-based; conditions: Rattus norvegicus;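 further: cell death triggered by IL-1 beta plus TNF-alpha plus IFN-gamma mixture; protective hits raise ATP signal compared with cytokine alone wells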
[8] = target: T3, Rac GTPase-activating protein 1 (Homo sapiens, UniProt Q9H0H5); test: MgcRacGAP GTPase-activating activity inhibitors, confirmation, biochemical, ADP Hunter fluorescence, primary and confirmatory (AID 624330); format: functional
T3 sequence (Q9H0H5 whole entry): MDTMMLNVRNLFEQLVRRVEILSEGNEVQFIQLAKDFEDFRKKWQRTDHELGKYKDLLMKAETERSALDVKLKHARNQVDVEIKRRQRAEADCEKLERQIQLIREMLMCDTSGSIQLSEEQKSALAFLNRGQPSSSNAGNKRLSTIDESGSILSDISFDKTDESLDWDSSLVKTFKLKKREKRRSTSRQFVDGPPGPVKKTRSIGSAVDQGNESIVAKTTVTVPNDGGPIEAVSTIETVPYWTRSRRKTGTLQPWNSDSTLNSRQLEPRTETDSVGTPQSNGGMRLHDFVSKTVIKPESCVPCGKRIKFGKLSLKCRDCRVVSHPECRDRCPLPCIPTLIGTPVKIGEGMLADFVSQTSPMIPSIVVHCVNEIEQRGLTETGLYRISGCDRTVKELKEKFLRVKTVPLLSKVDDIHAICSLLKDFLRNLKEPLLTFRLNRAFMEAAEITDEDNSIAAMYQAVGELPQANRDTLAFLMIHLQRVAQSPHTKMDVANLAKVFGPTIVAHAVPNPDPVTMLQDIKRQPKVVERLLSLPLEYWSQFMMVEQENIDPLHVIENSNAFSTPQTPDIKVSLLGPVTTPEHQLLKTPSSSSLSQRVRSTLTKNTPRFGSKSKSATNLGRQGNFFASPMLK

[9] = target: T4, Oxysterols receptor LXR-beta (Homo sapiens, UniProt P55055); format: functional, cell-based;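 further: agonist activity at LXR measured by a cell-based luminescence readout across a dose range, run as a counterscreen for daf-12 agonists; potency for activation of Gal4-LXR reporter so compounds are agonists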
T4 sequence (P55055 whole entry): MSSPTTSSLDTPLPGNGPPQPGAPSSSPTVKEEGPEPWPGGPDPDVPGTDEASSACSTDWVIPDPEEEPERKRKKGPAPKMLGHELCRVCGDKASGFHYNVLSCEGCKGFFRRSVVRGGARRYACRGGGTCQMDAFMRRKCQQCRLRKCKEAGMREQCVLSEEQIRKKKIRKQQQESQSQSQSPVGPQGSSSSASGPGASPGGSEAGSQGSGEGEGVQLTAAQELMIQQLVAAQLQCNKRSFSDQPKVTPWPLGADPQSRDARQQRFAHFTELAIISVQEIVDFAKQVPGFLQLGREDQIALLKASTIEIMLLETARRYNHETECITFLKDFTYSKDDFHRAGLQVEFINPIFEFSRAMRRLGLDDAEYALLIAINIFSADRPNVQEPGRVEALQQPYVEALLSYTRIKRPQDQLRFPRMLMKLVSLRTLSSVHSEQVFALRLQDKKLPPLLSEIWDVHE

[10] = Luminescence-based cell-based high throughput dose response assay to identify activators of the DAF-12 from the parasite S. stercoralis (ssDAF-12).; format: functional
[11] = target: T4, Oxysterols receptor LXR-beta; test: LXR agonists, Gal4 luciferase reporter, dose response, counter-screen for ssDAF-12 agonist project, cell-based, luminescence, HEK293, S. stercoralis campaign (AID 720737); format: functional; conditions: read-out: IC50 (the source's name)
[12] = target: T5, Fructose-bisphosphate aldolase (Mycobacterium tuberculosis, UniProt P9WQA3); test: Fluorescence-based biochemical high throughput dose response assay for inhibitors of the fructose-bisphosphate aldolase (FBA) of M. tuberculosis.; format: functional
T5 sequence (P9WQA3 whole entry): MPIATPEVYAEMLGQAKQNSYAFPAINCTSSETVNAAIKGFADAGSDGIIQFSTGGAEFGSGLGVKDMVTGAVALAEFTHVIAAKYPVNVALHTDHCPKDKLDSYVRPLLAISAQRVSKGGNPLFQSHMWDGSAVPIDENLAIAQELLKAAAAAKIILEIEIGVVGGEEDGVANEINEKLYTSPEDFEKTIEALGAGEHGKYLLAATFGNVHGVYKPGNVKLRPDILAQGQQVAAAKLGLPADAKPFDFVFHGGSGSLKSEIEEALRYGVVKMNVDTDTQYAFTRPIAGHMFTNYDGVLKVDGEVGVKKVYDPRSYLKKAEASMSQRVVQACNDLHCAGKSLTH

[13] = target: Photoreceptor-specific nuclear receptor (Homo sapiens, UniProt Q9Y5X4); format: functional, cell-based;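 further: CHO-S cells with Gal4-NCOR and VP16-NR2E3 two-hybrid luciferase reporter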
[14] = target: T6, Long-chain-fatty-acid--AMP ligase FadD28 (Mycobacterium tuberculosis, UniProt P9WQ59); test: Fluorescence polarization aasay to screen for inhibitors that compete for the binding of FadD28 to a bisubstrate Measured in Biochemical System Using Plate Reader - 2147-01_Inhibitor_Dose_CherryPick_Activity.; format: functional, Mycobacterium tuberculosis H37Rv
T6 sequence (P9WQ59 whole entry): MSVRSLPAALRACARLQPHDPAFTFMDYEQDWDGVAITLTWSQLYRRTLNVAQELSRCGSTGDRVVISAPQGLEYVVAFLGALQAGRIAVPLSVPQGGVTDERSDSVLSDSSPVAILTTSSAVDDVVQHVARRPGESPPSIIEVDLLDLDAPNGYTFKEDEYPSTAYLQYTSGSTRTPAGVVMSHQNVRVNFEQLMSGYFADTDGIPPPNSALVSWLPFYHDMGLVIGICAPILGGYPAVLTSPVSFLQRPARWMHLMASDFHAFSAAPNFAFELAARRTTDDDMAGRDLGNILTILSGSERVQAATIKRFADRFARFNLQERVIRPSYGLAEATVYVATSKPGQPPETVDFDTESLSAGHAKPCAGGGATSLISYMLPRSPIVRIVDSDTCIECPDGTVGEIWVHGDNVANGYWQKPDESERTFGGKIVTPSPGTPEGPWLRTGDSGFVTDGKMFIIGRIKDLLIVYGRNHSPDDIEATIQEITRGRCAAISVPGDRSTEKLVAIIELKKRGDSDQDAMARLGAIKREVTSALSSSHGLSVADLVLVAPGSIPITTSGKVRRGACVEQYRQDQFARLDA

Sequence of Nonstructural protein 1 (Q194T2 whole entry): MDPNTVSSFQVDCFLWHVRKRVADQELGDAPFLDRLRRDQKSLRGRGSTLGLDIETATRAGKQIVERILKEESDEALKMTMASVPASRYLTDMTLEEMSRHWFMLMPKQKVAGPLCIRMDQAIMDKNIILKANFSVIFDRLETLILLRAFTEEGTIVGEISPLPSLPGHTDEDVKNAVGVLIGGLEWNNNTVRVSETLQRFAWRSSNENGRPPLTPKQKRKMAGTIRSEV
Sequence of Photoreceptor-specific nuclear receptor (Q9Y5X4 whole entry, the tested form may be a part): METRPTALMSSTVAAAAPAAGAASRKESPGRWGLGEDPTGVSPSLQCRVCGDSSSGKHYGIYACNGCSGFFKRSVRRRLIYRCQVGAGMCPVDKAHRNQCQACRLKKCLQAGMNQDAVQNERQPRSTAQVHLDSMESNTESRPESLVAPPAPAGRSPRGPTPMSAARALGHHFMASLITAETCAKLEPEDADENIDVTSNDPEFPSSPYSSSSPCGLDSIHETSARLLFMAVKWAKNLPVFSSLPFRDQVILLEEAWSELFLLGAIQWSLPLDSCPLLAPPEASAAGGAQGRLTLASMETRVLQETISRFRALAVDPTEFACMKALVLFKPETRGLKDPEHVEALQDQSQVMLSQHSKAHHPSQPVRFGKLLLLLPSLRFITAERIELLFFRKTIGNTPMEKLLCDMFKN

## CC(C)(C)n1cc(C(=O)c2ccc3ccccc3c2O)cn1
[1]
  AC50: 6.45 µM (active)
[2]
  AC50: > 52 µM (inactive)
[3]
  AC50: 14.3 µM (active)

## CCCOc1ccc2c(=O)c(N3C(=O)c4ccccc4C3=O)c(C)oc2c1
fMet-Leu-Phe receptor
  Ki: > 66.7 µM (inactive)

## O=C(CSc1nnc(-c2ccccc2)n1-c1ccc(Cl)cc1)NNC(=S)Nc1ccccc1
[4]
  IC50: > 122 µM (inactive)

## Cc1ccc(S(=O)(=O)NC2=CC(=Nc3ccc(O)cc3)C(=O)c3ccccc32)cc1
[5]
  CC50: 2.86 µM (active)
[6]
  IC50: 1.58 µM (active)
Nonstructural protein 1
  IC50: 7.33 µM (active)
[7]
  IC50: 2.14 µM (active)
INS1
  AC50: 0.588 µM (active)
[8]
  IC50: 78.2 µM (active)

## O=C1/C(=C\c2cccs2)Sc2ccc3ccccc3c21
[9]
  EC50: > 67.5 µM (inactive)
[10]
  IC50: > 67.6 µM (inactive)
[11]
  EC50: > 67.6 µM (inactive)

## CCOC(=O)N1CCC(NC(=O)c2cc3cc4cc(OC)ccc4nc3o2)CC1
[12]
  IC50: > 0.37 µM (active)

## Cc1ccnc(NC(=O)C2CCN(S(=O)(=O)c3c(C)c(C)cc(C)c3C)CC2)c1
[9]
  EC50: > 67.6 µM (inactive)
[13]
  IC50: 1.85 µM (active)

## COc1ccc(CNC(=O)COC(=O)c2ccc(Br)c(S(=O)(=O)N3CCOCC3)c2)cc1
[14]
  AC50: > 100 µM (inactive)
